The experiment concerns the target Calcium/calmodulin-dependent protein kinase type II subunit delta (Homo sapiens, UniProt Q13557). The experiment is described as follows: Inhibition of CaMK2delta.

What is called IC50 is the concentration that inhibits the measured activity by half.

Calcium/calmodulin-dependent protein kinase type II subunit delta, sequence (Q13557 whole entry): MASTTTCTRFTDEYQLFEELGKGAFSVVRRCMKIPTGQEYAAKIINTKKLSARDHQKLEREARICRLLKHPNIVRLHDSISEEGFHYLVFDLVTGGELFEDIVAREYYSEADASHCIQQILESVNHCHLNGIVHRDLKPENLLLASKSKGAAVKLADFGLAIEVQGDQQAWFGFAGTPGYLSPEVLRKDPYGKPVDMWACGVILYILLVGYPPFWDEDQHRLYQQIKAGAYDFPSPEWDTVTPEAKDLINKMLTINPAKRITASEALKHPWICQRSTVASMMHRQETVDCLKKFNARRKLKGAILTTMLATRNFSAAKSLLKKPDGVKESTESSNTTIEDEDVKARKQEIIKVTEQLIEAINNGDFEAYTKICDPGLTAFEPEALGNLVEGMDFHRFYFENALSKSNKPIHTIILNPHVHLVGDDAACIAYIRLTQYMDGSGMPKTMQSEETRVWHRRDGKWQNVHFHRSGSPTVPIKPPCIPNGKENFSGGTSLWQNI

In the case of `CC(C)(C)OC(=O)NCCCn1cc(C2=C(c3csc4ccccc34)C(=O)NC2=O)c2ccccc21`, the IC50 was above 20000 nM. Turning to `Cc1[nH]c2ccccc2c1C1=C(c2cn(CCCNC(=O)OC(C)(C)C)c3ccccc23)C(=O)NC1=O`, the IC50 was 7610 nM.

In the case of `NCCCn1cc(C2=C(c3ccccn3)C(=O)NC2=O)c2ccccc21`, the IC50 was 1580 nM.

Consider `NCCCn1cc(C2=C(c3ccncc3)C(=O)NC2=O)c2ccccc21`, for which the IC50 turned out to be 1600 nM. The same measure for `CN1C(=O)C(c2c[nH]c3ccc(Br)cc23)=C(c2cn(CCCN)c3ccccc23)C1=O`: above 20000 nM; for `CN1C(=O)C(c2ccccc2)=C(c2cn(CCCN)c3ccccc23)C1=O`: 15000 nM; for `NCCCn1cc(C2=C(c3ccc4ccccc4n3)C(=O)NC2=O)c2ccccc21`: above 20000 nM.

Take `NCCCn1cc(C2=C(c3ccnc4ccccc34)C(=O)NC2=O)c2ccccc21`: the IC50 was 630 nM. Consider `NCCCn1cc(C2=C(c3cccc(Oc4ccccc4)c3)C(=O)NC2=O)c2ccccc21`, for which the IC50 was 1680 nM.

As for `NCCCn1cc(C2=C(c3cccnc3)C(=O)NC2=O)c2ccccc21`, the IC50 is 540 nM.

In the case of `NCCCn1cc(C2=C(c3cccs3)C(=O)NC2=O)c2ccccc21`, the IC50 amounted to 1190 nM. On to `Cc1cccc(C2=C(c3cn(CCCN)c4ccccc34)C(=O)NC2=O)c1`, for which the IC50 was found to be 280 nM.

In the case of `CC(C)(C)OC(=O)NCCCn1cc(C2=C(c3cccs3)C(=O)NC2=O)c2ccccc21`, the IC50 was above 20000 nM.

Consider `NCCCn1cc(C2=C(c3cccc(-c4ccccc4)c3)C(=O)NC2=O)c2ccccc21`, for which the IC50 was 1320 nM. As to `NCCCn1cc(C2=C(c3ccc4ccccc4c3)C(=O)NC2=O)c2ccccc21`, the IC50 was 500 nM. For `NCCCn1cc(C2=C(c3ccco3)C(=O)NC2=O)c2ccccc21`, the IC50 is 1490 nM. The same measure for `NCCCn1cc(C2=C(c3cccc4ccccc34)C(=O)NC2=O)c2ccccc21`: 290 nM. Take `CN1C(=O)C(c2csc3ccccc23)=C(c2cn(CCCN)c3ccccc23)C1=O`: the IC50 was 2320 nM.

These data come from ChEMBL document CHEMBL1143885, “Aryl-indolyl maleimides as inhibitors of CaMKIIdelta. Part 1: SAR of the aryl region” (Bioorg Med Chem Lett, 2008).
